Earlier results on one compound are cited in patent EP4115885A1 (Charité - Universitätsmedizin Berlin, priority 2021, dated 2023).

For series [1] the following is noted: human, in vivo.

In the case of `C[C@@H]1CN(Cc2ccc(F)cc2)CCN1C(=O)COc1ccc(Cl)cc1NC(N)=O` [BAY 86-5277, N-[5-chloro-2-[2-[(2R)-4-[(4-fluorophenyl)methyl]-2-methyl-1-piperazinyl]-2-oxoethoxy]phenyl]-urea], the tolerability entry in series [1] was “generally well tolerated”. For the same compound, the “effect of blockade of CCR1” value in the series on model of sepsis was “beneficial”.
